{"source": "patent US11185516B2", "about": "(Laboratorios Silanes S.A. DE C.V., priority 2016, dated 2021)", "key": {"[1]": {"assay": "clinical", "settings": "both, human, in vivo, oral, 1240 mg, tmax, median [minimum-maximum], 1240 mg single administration without food"}, "[2]": {"tested_on": "HeLa cells", "settings": "10 mM, 20 h", "method": "After the incubation, the cells were washed with PBS, collected and washed again, then fixed with methanol:acetone (50:50) for 16 h at −20° C., and stained with 10 μg/mL of propidium iodide, 0.01 mg/mL RNase, 0.01% sodium citrate, for 20 min at 37° C. in darkness. The stained cells were analyzed by flow cytometry using a BD FACS cell sorter and BD FACSuite™ software."}, "[3]": {"tested_on": "GLUT4", "assay": "GLUT4 translocation (FIG. 19A)"}, "[4]": {"tested_on": "type 2 diabetes patients"}, "[5]": {"tested_on": "AS160", "assay": "In vitro AS160 phosphorylation in the presence of GPBP, AMPK and AKT", "type": "biochemical", "settings": "5 mM, with FLAG-GPBP, AKT, AMPK", "method": "The reactions (25 μL) were carried out at 30° C., and stirred (350 rpm) for 15 min. Then, they were stopped with a reducing loading buffer, heated (95° C., 2 min), and analyzed using electrophoresis, electrotransfer, and autoradiography."}, "[6]": {"tested_on": "IRS2 knockout mice (KO IRS2)", "assay": "Body weight in IRS2 knockout mice", "type": "in vivo, mouse", "settings": "100 mg/kg/day, 8 weeks", "method": "Body weight of the mice was measured prior to the onset of treatment, at 4 weeks after treatment, and at 8 weeks after treatment. There were 8 mice in each group at the pre-treatment and 4-week treatment time points. […] Statistical differences between the experimental groups shown in FIG. 20 were assessed by Student's T test. P value of <0.05 is indicated by *."}, "[7]": {"tested_on": "C57BL/6 mice", "assay": "Glycemia and dietary intake in C57BL/6 mice", "type": "in vivo, mouse", "settings": "1 week", "excerpt": "The mean glycemic values at the beginning and end of the experiment are represented for each group (n=3) with their standard deviations."}, "[8]": {"settings": "2:1 complex (2 molecules of metformin for 1 of glycine), aqueous solution"}, "[9]": {"tested_on": "wild type controls (WT)", "settings": "100 mg/kg/day, 8 weeks, fasting", "method": "(§1) At the 8-week treatment time point, there were 8 mice in each of the WT groups, 6 mice in the KO IRS2 untreated control group, 7 mice in the KO IRS2 SLN1 treated group, and 8 mice in the KO SLN2 treated group. Blood was collected at the time of sacrifice and used to measure TG under fasting conditions. […] Statistical differences between the experimental groups shown in FIG. 21 were assessed by Student's T test. P value of <0.05 is indicated by *."}, "[10]": {"tested_on": "IRS2 knockout mice (IRS2-/-)", "settings": "100 mg/kg/day, 8 weeks", "method": "At the 8-week treatment time point, there were 6 mice in each treatment group. Adipose tissue was collected upon sacrifice and frozen in liquid N2. Lipidomics analysis of the tissue was then performed using HPLC/MS. […] Statistical differences between the experimental groups shown in FIG. 22 were assessed by Student's T test. P value of <0.01 is indicated by **."}, "[11]": {"molecular_target": "GPBP (Homo sapiens, UniProt Q9Y5P4)", "settings": "1 mM, FIG. 6A"}, "[12]": {"tested_on": "IRS2 knockout mice (KO IRS2)", "assay": "Serum triglycerides in IRS2 knockout mice", "type": "in vivo, mouse", "settings": "100 mg/kg/day, 8 weeks, fasting", "method": "as §1"}, "[13]": {"tested_on": "insulin receptor (IRβ)", "settings": "10 mM, 3 h", "excerpt": "Next, cells were washed with PBS and their membrane proteins were extracted."}, "[14]": {"tested_on": "C2C12 myotubes", "assay": "Glucose concentration of C2C12 myotube cultures in M1 macrophage conditioned media", "type": "cell-based, mouse", "settings": "macrophages treated with 10 mM for 2 h, then LPS/IFNγ 16 h", "method": "There is considerable evidence showing that inflammation and hyperglycemia are interconnected: inflammation induces hyperglycemia and reciprocally hyperglycemia induces inflammation with the molecular bases not elucidated yet. To explore the participation of GPBP, glucose intake under normoglycemic conditions with conditioned media generated by macrophages differentiated to a proinflammatory M1 phenotype was monitored.\n[…]. The glucose concentration of the myotube cultures was determined at different times with Glucocard (Arkray). The controls used were the C2C12 cultured with media conditioned with no stimulated macrophages (Cells) or with M1 conditioned media (M1). The initial glucose levels (time 0) were used as a reference (100%) in each series."}, "[15]": {"tested_on": "VAPA and VAMPs", "assay": "Colocalization of VAPA and VAMPs (FIG. 18)"}, "[16]": {"molecular_target": "T1, GPBP (Homo sapiens, UniProt Q9Y5P4)", "T1 sequence (Q9Y5P4 1-624)": "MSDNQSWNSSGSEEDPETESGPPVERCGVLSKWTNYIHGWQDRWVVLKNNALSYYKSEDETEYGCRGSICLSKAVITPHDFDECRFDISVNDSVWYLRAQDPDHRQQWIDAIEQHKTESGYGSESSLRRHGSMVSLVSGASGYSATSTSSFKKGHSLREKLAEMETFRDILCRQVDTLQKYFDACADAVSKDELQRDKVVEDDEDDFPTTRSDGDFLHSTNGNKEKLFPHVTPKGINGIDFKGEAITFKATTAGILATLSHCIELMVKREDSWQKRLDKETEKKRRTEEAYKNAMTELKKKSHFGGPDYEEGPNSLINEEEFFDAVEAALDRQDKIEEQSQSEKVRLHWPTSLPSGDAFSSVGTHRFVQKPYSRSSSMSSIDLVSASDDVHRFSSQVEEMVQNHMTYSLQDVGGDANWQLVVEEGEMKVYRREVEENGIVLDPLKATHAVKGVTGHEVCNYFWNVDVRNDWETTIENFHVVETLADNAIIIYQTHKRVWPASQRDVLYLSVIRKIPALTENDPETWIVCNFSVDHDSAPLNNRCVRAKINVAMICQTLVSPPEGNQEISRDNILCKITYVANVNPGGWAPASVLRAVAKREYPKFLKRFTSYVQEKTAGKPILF"}}}
{"smiles": "CN(C)C(=N)NC(=N)N", "note": "[Metformin glycinate, N,N-dimethylimidodicarbonimidic diamide glycinate]", "values": [{"measurement": "Tmax", "setting": "[1]", "result": 1.5, "unit": "h"}, {"measurement": "cancer cells entering G1 phase cell cycle arrest", "setting": "[2]", "result": "about 56%"}, {"measurement": "GLUT4 translocation", "setting": "[3]", "result": "translocated GLUT4"}, {"measurement": "A1c level after two months treatment", "setting": "[4]; 1050.6 mg per day 30 days, then 1050.6 mg twice a day 30 days, p=0.008", "result": "7.1±1.0", "unit": "%"}, {"measurement": "A1c level before treatment", "setting": "[4]; DMMET01 group, baseline", "result": "8.1±0.8", "unit": "%"}, {"measurement": "reduction of the A1c level", "setting": "[4]; after two months treatment", "result": "more than 1%"}, {"measurement": "sensitivity to insulin (Glucose CLAMP)", "setting": "[4]; after two months treatment", "result": "did not change"}, {"measurement": "adverse events vs placebo", "setting": "[4]; two months treatment", "result": "No statistically significant difference in adverse events"}, {"measurement": "Tmax, comparative analysis", "setting": "620 mg BID vs metformin hydrochloride 1000 mg BID", "result": "statistically significant differences"}, {"measurement": "bioequivalence (90% C.I. in magnitude and velocity)", "setting": "620 mg against metformin hydrochloride 500 mg", "result": "within the theoretical ranges of bioequivalence"}, {"measurement": "pharmacokinetic parameters of test vs reference (metformin hydrochloride)", "setting": "Stage B, multiple doses", "result": "similar"}, {"measurement": "phosphorylation of AS160", "setting": "[5]", "result": "increased"}, {"measurement": "average body weight, post- vs pre-treatment", "setting": "[6]", "result": "significantly lower after 8 weeks than before treatment"}, {"measurement": "glycemia, end vs beginning", "setting": "[7]; 100 mg/kg/day mixed with solid food, n=3", "result": "significantly reduced glycemia"}, {"measurement": "extent of glycemia reduction compared to metformin hydrochloride", "setting": "[7]; 100 mg/kg/day", "result": "to a greater extent"}, {"measurement": "food intake compared to untreated mice", "setting": "[7]; 100 mg/kg/day", "result": "food intake was greater"}, {"measurement": "complexation constant", "setting": "[8]", "result": "712±19"}, {"measurement": "serum triglycerides compared to untreated or SLN1-treated control mice", "setting": "[9]", "result": "lower"}, {"measurement": "adipose tissue triglyceride 16:0 compared to control IRS2−/−", "setting": "[10]", "result": "significantly lower"}, {"measurement": "adipose tissue triglyceride 18:1n-9c compared to control IRS2−/−", "setting": "[10]", "result": "drastically reduced"}, {"measurement": "GPBP auto-phosphorylation activity", "setting": "[11]", "result": "inhibition of GPBP auto-phosphorylation activity"}, {"measurement": "serum triglycerides compared to untreated KO IRS2", "setting": "[12]", "result": "lower"}, {"measurement": "accumulation of IRβ on the cell membrane vs metformin hydrochloride", "setting": "[13]", "result": "significantly more accumulation"}, {"measurement": "glucose levels of myotube cultures (hyperglycemic levels)", "setting": "[14]", "result": "maintained values at normoglycemic levels"}, {"measurement": "colocalization of VAPA and VAMPS", "setting": "[15]", "result": "reduced colocalization"}, {"measurement": "high molecular weight GPBP aggregates", "setting": "[16]; 1 mM, 24 h", "result": "high molecular weight aggregates formed"}, {"measurement": "GPBP-LKB1 aggregates", "setting": "[16]; FIG. 14", "result": "dissociates GPBP-LKB1 aggregates"}]}
